# Reference: patent US20250017949A1, “METHODS AND COMPOSITIONS FOR SUPPRESSING AGING-ASSOCIATED CLONAL HEMATOPOIESIS” (The Jackson Laboratory, priority 2021, published 2025)
# Experiments:
# [1] = tested on: Dnmt3a-mutant HSCs; experiment: PVA HSC culture with recombinant TNFα, cell number; format: cell-based, mouse; details: recombinant TNFα added to mixed cultures of wild-type and Dnmt3a^R878H HSCs
# Source text: (§1) FIGS. 6A-6I: Dnmt3a-mutant HSCs maintain self-renewal and generate B lymphoid cells following TNF stimulation. (FIG. 6A) Schematic of experimental design to test response of Mx-Cre control and Dnmt3a^R878H/+ HSCs to recombinant TNFα ex vivo under growth conditions that favor HSC expansion. (FIG. 6B) Normalized frequency of donor-derived cells in PB of recipient mice post-transplant. Significance calculated using mixed-effects model with Fisher's LSD. (FIG. 6C) Representative flow cytometry plots showing B cell and myeloid cell frequencies in donor derived PB at 4 weeks post-transplant. (FIG. 6D) Frequency of myeloid (left) and B cells (right) in donor derived PB at 4 weeks post-transplant. Significance calculated using two-way ANOVA with Sidak's multiple comparison's test. (FIG. 6E) Schematic of experimental design to test TNFα response of Fgd5-Cre^ERT control vs. Fgd5-Cre^ERT Dnmt3a^R878H/+ HSCs, and germline Dnmt3a^+/+ vs. Dnmt3a^+/− HSCs. (FIGS. 6F-6G) Viable cell counts after 7 days of culture. Significance calculated using Brown-Forsythe and Welch ANOVA with Welch's correction. (FIG. 6H) Frequency of donor-derived cells in PB of recipient mice post-transplant. Significance calculated using mixed-effects model with Fisher's LSD. (FIG. 6I) Frequency of myeloid (left) and B cells (right) in donor derived PB at 4 weeks post-transplant. Significance calculated using one-way ANOVA with Fisher's LSD. (FIGS. 6B, 6D, and 6F-6I) Dots represent individual recipient mice, boxes show 25 to 75th percentile, line is median, whiskers show min to max. *P<0.05, **P<0.01, ***P<0.001.
# (§2) To assess the extent to which TNFα directly promotes young Dnmt3a-mutant HSC survival, we added recombinant TNFα to mixed cultures of wild-type and Dnmt3a-mutant HSCs in media that sustains HSC self-renewal (FIG. 6A). […]
# (§3) Two months post-poly(I:C), 25 CD45.2^+ from Dnmt3a^+/+ Mx-Cre or Dnmt3a^fl-R878H/+ Mx-Cre donors (CD45.2+) and 25 CD45.1^+/CD45.2^+ HSCs were sorted into a 96-well plate with Ham's F12 media containing final concentrations of 1× Penicillin-streptomycin-glutamine (Gibco cat. #10378-016), 10 mM HEPES (Gibco cat. #15630080), 1× Insulin-transferrin-selenium-ethanolamine (Gibco cat. #51500-056), 100 ng/mL recombinant murine TPO (Biolegend cat. #593302), 10 ng/mL recombinant murine SCF (StemCell Technologies cat. #78064), and 1 mg/mL polyvinyl alcohol (Sigma cat. #P8136)^19+/−10 ng/mL recombinant murine TNF-α (PeproTech cat. #315-01A) and cultured for seven days at 37° C. and 5% CO2. […] On day 7, half of the wells were stained and analyzed by flow cytometry and half of the wells were harvested, mixed with 1×10^6 CD45.1^+ post-ficoll whole BM cells, and transplanted into young, lethally irradiated CD45.1^+ recipients. […]
# [2] = tested on: control HSCs; experiment: PVA HSC culture with recombinant TNFα, cell number; format: cell-based, mouse
# Source text: as §1, §2, §3
# [3] = tested on: Dnmt3a-mutant HSCs; experiment: Transplant of TNFα-treated cultured HSCs into recipient mice; format: in vivo, mouse
# Source text: as §1
# (§4) To assess the extent to which TNFα directly promotes young Dnmt3a-mutant HSC survival, we added recombinant TNFα to mixed cultures of wild-type and Dnmt3a-mutant HSCs in media that sustains HSC self-renewal (FIG. 6A). […] Post culture, cells were transplanted into recipient mice to assess HSC function. […] Thus, TNFα-driven myeloid regeneration at the expense of HSC self-renewal is disrupted in Dnmt3a^R878H/+ HSCs. Instead, TNFα-treated Dnmt3a^R878H/+ HSCs favor lymphoid regeneration and maintain their self-renewal. To assess this in complementary models, we used tamoxifen-inducible Fgd5-Cre-driven Dnmt3a^R878H/+ mice as well as germline Dnmt3a^+/− mice to isolate HSCs for TNFα stimulation (FIG. 6E). […] Thus, TNFα-induced HSC survival and disrupted myeloid regeneration are broadly relevant to Dnmt3a-mutant clonal hematopoiesis.
# (§5) Two months post-poly(I:C), 25 CD45.2^+ from Dnmt3a^+/+ Mx-Cre or Dnmt3a^fl-R878H/+ Mx-Cre donors (CD45.2+) and 25 CD45.1^+/CD45.2^+ HSCs were sorted into a 96-well plate with Ham's F12 media containing final concentrations of 1× Penicillin-streptomycin-glutamine (Gibco cat. #10378-016), 10 mM HEPES (Gibco cat. #15630080), 1× Insulin-transferrin-selenium-ethanolamine (Gibco cat. #51500-056), 100 ng/mL recombinant murine TPO (Biolegend cat. #593302), 10 ng/mL recombinant murine SCF (StemCell Technologies cat. #78064), and 1 mg/mL polyvinyl alcohol (Sigma cat. #P8136)^19+/−10 ng/mL recombinant murine TNF-α (PeproTech cat. #315-01A) and cultured for seven days at 37° C. and 5% CO2. TNF-α was spiked into the cultures on day 4 and 6. On day 7, half of the wells were stained and analyzed by flow cytometry and half of the wells were harvested, mixed with 1×10^6 CD45.1^+ post-ficoll whole BM cells, and transplanted into young, lethally irradiated CD45.1^+ recipients. PB was tracked monthly for six months post-transplant via flow cytometry.
# [4] = tested on: control HSCs; experiment: as above; format: in vivo, mouse
# Source text: as §1, §4, §5
# [5] = donor-derived cells in PB post-transplant, FIG. 6B
# [6] = post-transplant, data not shown
substance,measurement,setting,value
TNFα,Maintenance of Dnmt3a^R878H HSC progeny in mixed cultures,[1],preferential maintenance of Dnmt3a^R878H HSC progeny
same,Number of control cells produced over the culture period,"[2]; Mx-Cre control, 10 ng/mL TNF-α, seven days, data not shown",reduced the number of control
same,Viable cell counts of control cells after 7 days of culture,"[2]; controls of the Fgd5-Cre and germline Dnmt3a^+/− models, FIGS. 6F-6G",reduced the number of control
same,Wild-type progeny in mixed cultures,[2]; recombinant TNFα added to mixed cultures of wild-type and Dnmt3a^R878H HSCs,depletion of wild-type progeny
same,Dnmt3a^+/− B lymphoid relative to myeloid cell production,"[3]; donor-derived PB at 4 weeks post-transplant, FIG. 6I",transiently increased Dnmt3a^+/− B lymphoid relative to myeloid cell production
same,Dnmt3a^R878H/+ B lymphoid cell production,"[3]; donor-derived PB at 4 weeks post-transplant, FIGS. 6C-6D",transiently increased Dnmt3a^R878H/+ B lymphoid cell production
same,Mature hematopoietic cell production and engraftment of TNFα-treated Dnmt3a^R878H/+ HSCs,[3]; [5],increased production of mature hematopoietic cells in the short term (4 weeks post-transplant) followed by sustained multilineage engraftment
same,"HSC, MPP^Mk/E and MPP^G/M populations in bone marrow from TNFα-treated Dnmt3a^R878H/+ HSCs",[3]; [6],not observed in TNFα-treated Dnmt3a^R878H/+ HSCs
same,Multilineage engraftment of TNFα-treated Dnmt3a^+/− HSCs,"[3]; vs TNFα-treated control HSCs, FIG. 6H",sustained multilineage engraftment at a higher frequency than TNFα-treated control HSCs
same,Long-term multilineage engraftment of TNFα-treated control HSCs,[4]; [5],did not sustain long-term multilineage engraftment
same,"HSC, MPP^Mk/E and MPP^G/M populations in bone marrow from TNFα-treated control HSCs",[4]; [6],"trends toward reduced HSC, MPP^Mk/E, and MPP^G/M populations"
